Measurements published in BigSolDB 2.1.

CN(C)CCn1[nH]nnc1=S
Settings	solubility (mole fraction)
in DMF, 293.45 K	0.000803
in DMF, 298.34 K	0.000875
in DMF, 303.35 K	0.00105
in DMF, 308.38 K	0.00122
in DMF, 313.25 K	0.00146
in DMF, 318.22 K	0.00179
in DMF, 323.2 K	0.00212
in DMF, 328.12 K	0.00253
in DMF, 333.3 K	0.00297
in DMF, 338.22 K	0.00335
in DMF, 345.15 K	0.00393
in ethanol, 293.25 K	5.34e-05
in ethanol, 298.15 K	6.16e-05
in ethanol, 302.95 K	7.31e-05
in ethanol, 308.1 K	8.48e-05
in ethanol, 312.94 K	9.91e-05
in ethanol, 318.15 K	0.000118
in ethanol, 322.55 K	0.000133
in ethanol, 327.45 K	0.000156
in ethanol, 332.55 K	0.000181
in ethanol, 338.05 K	0.000206
in ethanol, 342.2 K	0.000227
in isopropanol, 293.15 K	3.47e-05
in isopropanol, 298.28 K	4.15e-05
in isopropanol, 303.35 K	4.8e-05
in isopropanol, 308.14 K	5.43e-05
in isopropanol, 313.25 K	6.15e-05
in isopropanol, 318.2 K	6.96e-05
in isopropanol, 323.25 K	7.96e-05
in isopropanol, 328.16 K	9.09e-05
in isopropanol, 333.35 K	0.000106
in isopropanol, 338.32 K	0.000123
in isopropanol, 343.45 K	0.000144
in methanol, 293.05 K	0.000156
in methanol, 298.17 K	0.000186
in methanol, 303.15 K	0.000219
in methanol, 308.2 K	0.000254
in methanol, 313.05 K	0.000291
in methanol, 318.24 K	0.000348
in methanol, 323.25 K	0.000414
in methanol, 328.23 K	0.000485
in methanol, 333.15 K	0.000571
in n-butanol, 293.15 K	6.11e-05
in n-butanol, 298.21 K	6.93e-05
in n-butanol, 303.35 K	7.66e-05
in n-butanol, 308.14 K	8.49e-05
in n-butanol, 313.05 K	9.47e-05
in n-butanol, 318.28 K	0.000103
in n-butanol, 323 K	0.000112
in n-butanol, 328.14 K	0.000126
in n-butanol, 333.05 K	0.000141
in n-butanol, 338.12 K	0.000158
in n-butanol, 343.1 K	0.000179
in n-propanol, 293.17 K	5.79e-05
in n-propanol, 298.14 K	7.34e-05
in n-propanol, 303.25 K	8.52e-05
in n-propanol, 308.12 K	0.000107
in n-propanol, 313.15 K	0.000127
in n-propanol, 318.23 K	0.00014
in n-propanol, 323.2 K	0.000161
in n-propanol, 328.34 K	0.000176
in n-propanol, 332.95 K	0.000189
in n-propanol, 338.18 K	0.000216
in n-propanol, 343.16 K	0.000241
in sec-butanol, 293.35 K	3.16e-05
in sec-butanol, 298.37 K	3.49e-05
in sec-butanol, 303.25 K	4.12e-05
in sec-butanol, 308.24 K	4.36e-05
in sec-butanol, 313.15 K	4.84e-05
in sec-butanol, 318.12 K	6.19e-05
in sec-butanol, 323 K	7.52e-05
in sec-butanol, 327.33 K	9.18e-05
in sec-butanol, 330.85 K	0.00011
in sec-butanol, 335.57 K	0.000133
in sec-butanol, 340.5 K	0.000165
in water, 293.15 K	0.00421
in water, 298.12 K	0.00516
in water, 303.15 K	0.00636
in water, 308.22 K	0.008
in water, 313.35 K	0.0101
in water, 318.28 K	0.0127
in water, 323.35 K	0.0161
in water, 328.24 K	0.0199
in water, 333.35 K	0.0246
in water, 338.21 K	0.0303
in water, 343.3 K	0.0371
